In assay [1] the test system is S. aureus MRSA252. As to the kind of experiment: MIC determination (broth microdilution), oxacillin with or without kinase inhibitor. The class given is cell-based, Staphylococcus aureus. The note with it: for MIC: Staphylococcus aureus; for MIC of oxacillin in the presence of compound: compound at 7 μg/mL. The method, then: A protein-kinase inhibitor library of 80 known compounds was tested in a 96-well format against strain MRSA252 for the screening. We first determined MICs (broth microdilution method) (CLSI, Performance Standards for Antimicrobial Susceptibility Testing; Twenty-Second Informational Supplement. CLSI document M100-S22. Clinical and Laboratory Standards Institute; Wayne, Pa.) for all the inhibitors in the library, in case some of them might have antibacterial properties of their own, which could complicate the analysis.
This rapid initial screening identified compound 1 as meeting the selection criteria of lowering the MIC for oxacillin, which was followed up by the actual evaluation of the MIC of oxacillin against S. aureus MRSA252 in the presence of the inhibitor.
(§1) Minimal-inhibitory concentration (MIC) determination. Determination of MICs was done by the microdilution method cation-adjusted in Mueller-Hinton II Broth (CAMHB II, BBL) in accordance with the protocols of CLSI (Performance Standards for Antimicrobial Susceptibility Testing; Twenty-Second Informational Supplement. CLSI document M100-S22. Clinical and Laboratory Standards Institute Wayne, Pa.). A final bacterial inoculum of 5×10^5 CFU/mL was used, and the results were recorded after incubation for 16-20 h at 37° C.
On the technique in general: In broth dilution the organism is exposed to a series of concentrations in liquid medium.

In assay [2] the test system is BlaR1 phosphorylation. As to the kind of experiment: BlaR1 phosphorylation by western blot in CBAP-induced NRS128 whole-cell extracts. Format: cell-based, Staphylococcus aureus NRS128. Particulars: NRS128 induced with 10 μg/mL CBAP, compound at 7 or 17 μg/mL. On the procedure: Next, we tested the effect of exposure of CBAP-induced NRS128 to this kinase inhibitor. Cultures were induced with 10 μg/mL CBAP in the presence of 0, 7, or 17 μg/mL of compound 1. Whole-cell extracts of these bacteria were analyzed for BlaR1 phosphorylation by western blot using anti-Phos-Ser and anti-Phos-Tyr antibodies. Compound 1 inhibited both the phosphotyrosine and phosphoserine kinase activities by as much as 70-90% (FIG. 4).
Detection of BlaR1 phosphorylation in presence of antibiotic. As we had disclosed in a recent publication on fragmentation of BlaR1 during the course of induction, we detect a cleavage at position S283-F284 of BlaR1 (Llarrull et al., J. Biol. Chem. 2011, 286, 38148-38158). This proteolytic cleavage cuts the BlaR1 protein into two fragments of roughly equal sizes (approx. 30-31 kDa). […]
Extracts were prepared as previously described in buffer containing 50 mM Tris pH 7.5, 150 mM NaCl, 2 mM EDTA, 0.55% SDS, 2.5% Triton X-100, and Halt Protease and Phosphatase Inhibitor Cocktail (Thermo Scientific, Waltham, Mass., U.S.A.) and analyzed by Western blot using antibodies against phosphothreonine, phosphotyrosine, and phosphoserine. A ˜30 kDa protein band was detected by the phosphotyrosine and phosphoserine specific antibodies only in cell extracts of S. aureus cells grown with CBAP (FIG. 2). This band was not detected by the phosphothreonine antibody. […]
Background: Immunoblotting shows a protein as a band on a membrane.

Assay [3] has as its target T1, Stk1 protein kinase (Staphylococcus aureus, UniProt A0ABF7PGK0). As to the kind of experiment: In vitro phosphorylation assay: phosphorylation of myelin basic protein (MBP) by Stk1. The class given is biochemical, S. aureus strain NRS70. The note with it: IC50, inhibition of MBP phosphorylation by Stk1, [γ-32P]-ATP 20 μM. The source says:
(§2) Cloning, expression, and purification of S. aureus Stk1 protein kinase. The stk1 gene for Stk1 protein kinase (SA1063 in S. aureus NRS70) is conserved in all known genomic sequences for S. aureus (Beltramini et al., Infect. Immun. 77, 1406-1416 (2009); Débarbouillé et al., J. Bacteriol. 191, 4070-4081 (2009); Didier et al., FEMS Microbiol. Lett. 306, 30-36 (2010)). We PCR-amplified the DNA fragment corresponding to the entire coding sequences of stk1 from S. aureus strain NRS70 chromosomal DNA with primers STK1fw (5′-[…] […]-3′) and STK1rev (5′-[…] […]-3′). The amplified DNA fragments were then digested with NdeI and XhoI restriction enzymes and cloned into pET28a. After verification of the inserts by DNA sequencing on both strands, the resulting plasmid (termed pETstk1) was introduced into E. coli strain BL21(DE3) for protein expression.
(§3) For purification of Stk1, 5 mL of an overnight culture of BL21(DE3) harboring pETstk1 was inoculated into 500 mL fresh LB medium and grown at 37° C. until the OD600 reached 0.8. Isopropyl β-D-1-thiogalactopyranoside (IPTG) was then added to the culture to a final concentration of 0.5 mM and the culture was shaken at 15° C. overnight. The culture was then centrifuged at 5000 rpm at 4° C. for 15 min. The pellet was resuspended in 20 mL of lysis buffer (25 mM HEPES, 500 mM NaCl, 10 mM imidazole, pH 7.4). After sonication, the lysate was centrifuged at 18,000 g at 4° C. for 45 min. The resulting supernatant containing the His-tagged Stk1 was loaded onto a 5-mL Hitrap Chelating column (GE Healthcare), followed by elution with a linear gradient of imidazole (0-500 mM) in lysis buffer. The fractions containing Stk1 were pooled, concentrated and the buffer was exchanged to 25 mM HEPES, pH 7.4. The resulting sample was then subjected to Q anion-exchange chromatography and eluted with a linear gradient of NaCl (0-1 M). Protein purity was ascertained by sodium dodecyl sulfate polyacrylamide gel electrophoresis (SDS-PAGE) (FIG. 7).
(§4) In vitro phosphorylation assay. […] Band intensities were quantified using GelQuant software. […]

The subject of assay [4] is BlaR1 phosphorylation. As to the kind of experiment: BlaR1 phosphorylation by western blot in CBAP-induced NRS70 whole-cell extracts. Format: cell-based, Staphylococcus aureus NRS70. The note with it: for tyrosine phosphorylation of the BlaR1 fragment: NRS70, CBAP-induced, 7 μg/mL inhibitor; for serine phosphorylation of BlaR1 fragment: NRS70, even at 17 μg/mL. On the procedure: We then evaluated the ability of compounds 10, 11 or 12 to inhibit tyrosine phosphorylation of BlaR1 in NRS70 extracts. The bacteria were grown under the conditions described earlier for NRS128, induced by CBAP in the absence and presence of 0.7 μg/mL or 7 μg/mL compounds 10, 11 or 12, and analyzed by western blot using antibody against phosphotyrosine (FIG. 5a). […] However, serine phosphorylation was not inhibited by any of these compounds, even at 17 μg/mL (FIG. 6), in contrast to the case of 1, which had inhibited both. This provides evidence for the critical nature of tyrosine phosphorylation for regulation of BlaR1.
To overcome this, we subsequently cleared all S. aureus extracts of Protein A and other immunoglobulin-binding proteins by incubation with IgG Sepharose (GE Healthcare, Little Chalfont, UK) for 1-2 h at room temperature with gentle agitation. After a brief centrifugation, the total protein in the supernatant was quantified by a BCA assay and 20 μg was loaded onto an 11% SDS-PAGE gel. Following electrophoresis, samples were transferred to a nitrocellulose membrane in a 10 mM CAPS (pH 11) buffer containing 10% methanol. Membranes were blocked in 3% BSA for phosphoserine blots or Blotto (3% BSA, 3% milk in TBS) for phosphotyrosine blots. HRP-conjugated primary antibody was applied in either 1% BSA/TBST (phosphoserine, Abcam, Cambridge, UK) or 1.1% milk/TBST (phosphotyrosine, 4G10 Platinum, EMD Millipore, Billerica, Mass., U.S.A.). Phosphoserine blots were developed with Pierce ECL Substrate (Thermo Scientific) and phosphotyrosine blots were developed with SuperSignal West Dura Extended Duration Substrate (Thermo Scientific), then exposed to X-ray film for an appropriate amount of time (30-600 s).

The test system of assay [5] is MRSA strain NRS123. The experiment in a line: MIC determination (broth microdilution), oxacillin with or without kinase inhibitor. The note with it: for MIC of oxacillin in the presence of compound: compound at 7 μg/mL. The class given is cell-based, Staphylococcus aureus.
Text: (§5) We evaluated the new imidazole analogues for their ability to lower the MIC of oxacillin against MRSA in the same manner as for the kinase inhibitor library. In addition to MRSA252, we expanded our investigation to include strains NRS123 and NRS70, both of which have 95% sequence identities between their BlaR1 proteins and that of NRS128, with the bla operon encoded on plasmids (pMW2 and pN315, respectively).
as §1

The subject of assay [6] is MRSA strain NRS70. The description is as above. Format: cell-based, Staphylococcus aureus. Particulars: for MIC of oxacillin in the presence of compound: compound at 7 μg/mL.
Text: as §5, §1

For assay [7], the target named is T1, Stk1 protein kinase. The experiment in a line: In vitro phosphorylation assay: Stk1 autophosphorylation. Particulars: IC50, inhibition of Stk1 autophosphorylation, [γ-32P]-ATP 20 μM. Format: biochemical, S. aureus strain NRS70.
Text: as §2, §3, §4

[8] abbreviates: Staphylococcus aureus, no inhibitor.

“And” between values parts separate entries of the source, which are not always exact repeats. Equal entries are not always repeated. Where two headings read alike, the source gives them in different places.

The term MIC denotes the smallest concentration in the dilution series that meets the test's criterion for growth inhibition. By IC50 is commonly meant the concentration at which inhibition is half-maximal.

T1 sequence (A0ABF7PGK0 entry or part of it): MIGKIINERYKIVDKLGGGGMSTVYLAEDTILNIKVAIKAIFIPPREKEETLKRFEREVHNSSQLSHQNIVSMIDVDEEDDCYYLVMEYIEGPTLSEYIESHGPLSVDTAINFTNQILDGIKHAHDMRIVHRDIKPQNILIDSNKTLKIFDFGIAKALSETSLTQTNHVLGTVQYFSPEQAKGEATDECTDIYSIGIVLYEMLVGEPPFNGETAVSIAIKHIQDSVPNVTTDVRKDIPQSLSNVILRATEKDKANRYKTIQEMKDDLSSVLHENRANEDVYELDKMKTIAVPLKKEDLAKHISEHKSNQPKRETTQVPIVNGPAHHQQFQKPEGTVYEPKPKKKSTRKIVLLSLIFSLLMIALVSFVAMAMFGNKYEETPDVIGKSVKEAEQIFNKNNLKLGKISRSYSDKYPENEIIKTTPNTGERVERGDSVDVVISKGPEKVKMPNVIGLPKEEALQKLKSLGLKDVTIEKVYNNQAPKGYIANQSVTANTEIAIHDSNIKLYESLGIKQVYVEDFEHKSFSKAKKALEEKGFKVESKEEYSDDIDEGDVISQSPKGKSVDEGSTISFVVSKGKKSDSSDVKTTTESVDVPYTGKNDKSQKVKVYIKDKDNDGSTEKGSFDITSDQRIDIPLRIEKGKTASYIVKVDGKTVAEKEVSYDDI

For the molecule `Oc1ccc(-c2nc(-c3ccc(F)cc3)c(-c3ccncc3)[nH]2)cc1` [Compound 1, reference compound], the minimal inhibitory concentration (MIC) in assay [1] (without oxacillin, read-out: MIC of the kinase inhibitor alone) is not below 64 µg/mL. Besides, in assay [1] (inhibitor at 7 μg/mL), the “decrease in the MIC of oxacillin” value is “four-fold decrease”. Moreover, the “inhibition of phosphoserine kinase activity (BlaR1 phosphorylation)” value in assay [2] (anti-Phos-Ser western blot) is 70-90%. Moreover, the “inhibition of phosphotyrosine kinase activity (BlaR1 phosphorylation)” value in assay [2] (anti-Phos-Tyr western blot) was 70-90%.
For `CC(C)(C)c1ccc(-c2nc(-c3ccc(F)cc3)c(-c3ccncc3)[nH]2)cc1` [Compound 10, 2-(4-tert-Butylphenyl)-4-(4-fluorophenyl)-5-(4-pyridyl)imidazole], the concentration for half-maximal inhibition (IC50) in assay [3] is 5.65 µM and 6.1 µM; in assay [7] it was 8.35 µM and 8.8 µM. For the same molecule, the “tyrosine phosphorylation of the BlaR1 fragment” value (“tyrosine phosphorylation” below) in assay [4] is “almost completely abolished”. Moreover, the “serine phosphorylation of BlaR1 fragment” value in assay [4] is reported as “not inhibited”. Also, the “MIC of oxacillin in the presence of compound” value (“MIC of oxacillin … of compound” below) is 2 µg/mL in assay [1], 8 µg/mL in assay [5] and 4 µg/mL in assay [6].
`CCc1ccc(-c2nc(-c3ccc(F)cc3)c(-c3ccncc3)[nH]2)cc1` [Compound 11, 2-(4-Ethylphenyl)-4-(4-fluorophenyl)-5-(4-pyridyl)imidazole]: the concentration for half-maximal inhibition (IC50) is 11.6 µM and 12.2 µM and 12 µM in assay [3]; 14.6 µM and 14.9 µM and 14.7 µM in assay [7]. The “tyrosine phosphorylation” value in assay [4] is given as “almost completely abolished”. Also, the “serine phosphorylation of BlaR1 fragment” value in assay [4] is “not inhibited”. The “MIC of oxacillin … of compound” value in assay [1] was determined as 16 µg/mL; in assay [5], 4 µg/mL; in assay [6], 0.5 µg/mL.
Take `CC(C)Cc1ccc(-c2nc(-c3ccc(F)cc3)c(-c3ccncc3)[nH]2)cc1` [Compound 12, 2-(4-iso-Butylphenyl)-4-(4-fluorophenyl)-5-(4-pyridyl)imidazole]: the IC50 in assay [3] was 16.2 µM and 15.3 µM; in assay [7] it was 16.2 µM and 17 µM and 18 µM. The “tyrosine phosphorylation” value in assay [4] is “almost completely abolished”. Further, the “serine phosphorylation of BlaR1 fragment” value in assay [4] is given as “not inhibited”. For the same molecule, the “MIC of oxacillin … of compound” value in assay [1] worked out at 4 µg/mL; in assay [5] it was 4 µg/mL; in assay [6], 0.5 µg/mL.
On to `Cc1onc(-c2ccccc2)c1C(=O)N[C@@H]1C(=O)N2[C@@H]1SC(C)(C)[C@@H]2C(=O)O` [oxacillin, reference compound], for which the minimum inhibitory concentration (MIC) in assay [1] (no inhibitor, read-out: MIC of oxacillin) came out at 256 µg/mL; in assay [5] (setting [8]), 16 µg/mL; in assay [6] (setting [8]) it was 32 µg/mL.

Values taken from patent publication US20180044316A1, “POTENTIATORS OF BETA-LACTAM ANTIBIOTICS” (UNIVERSITY OF NOTRE DAME DU LAC, priority 2015, published 2018).
